According to patent US10429397B2 (priority 2015, dated 2019):

System: HeLa cells
Assay: Fluorescence microscopy assay of cell permeability
Assay type: cell-based
Details: 5 mM, 1 hour, streptavidin-Cy5
Procedure: The cells were then incubated in serum free media for 2 hours, followed by incubation with APB (5 mM) in serum free media (500 μL) for 1 hour. […] Cells were incubate with paraformaldehyde (4%, 500 μL) for 20 minutes at room temperature, then washed with 1×PBS (500 μL) three times. […] Streptavidin Cy5 (10 ug/mL) in blocking buffer (50 μL) was added and incubated with cells for 30 minutes. […] Cells were incubated with DAPI (100 μg/mL) for 5 minutes, followed by washing with 1×PBS (500 μL) 3 times each for 5 min. The cover slips were washed in water then installed on a glass slide containing Mowiol mounting solution (50 μL, Sigma Aldrich) saturated with DABCO (Sigma Aldrich). The slide was incubate at 31° C. for 30 minutes, and then kept at 4° C. until microscopy. Fluorescence photos were generated on an Olympus fluorescence microscope using laser wavelengths corresponding to DAPI (350 nm) and Cy5 (650 nm). DAPI photos were generated at 10 ms and Cy5 at 200 ms. Merged images were created using Adobe Photoshop.

biotin fluorescence signal in cells (cell permeability): no biotin signal
SMILES: Nc1ncnc2c1ncn2[C@@H]1O[C@H](COP(=O)(O)OP(=O)(O)OP(=O)(O)O)[C@@H](O)[C@H]1O [ATP, adenosine-5′-triphosphate, reference compound]
